According to US20250154121A1, “CYCLIC(ALKYL)(AMINO)ALKOXY-SUBSTITUTED ARYL-PYRONE COMPOUND AND USE THEREOF” (priority 2022, published 2025):
Where two headings read alike, the source gives them in different places.

Legend:
[1] = tested on: Sendai strain of parainfluenza virus; format: in vivo
[2] = tested on: Human Coronavirus 229E (HCoV-229E); assay: animal or person; format: in vivo
[3] = tested on: Influenza A (H1N1) virus PR8 strain; assay: Mouse pneumonia model infected with influenza A (H1N1) virus PR8 strain (lung index); format: in vivo, ICR mice
Description: (§1) ICR mice were taken and randomly divided by weight class: normal control group, model control group, oseltamivir control group, compound 4, compound F4, compound F5, compound 5, and compound 7 according to their weight class, and each drug was given in two dosage groups (10 mice in each group). Except for the normal control group, mice were slightly anesthetized with ether and infected with 15 LD50 H1N1 influenza virus liquid (FM1/PR8 strain) by nasal drops (30 μl per each animal). The administration was started on the day of infection at 0.2 ml/10 g by gavage each time once a day for 4 days, and the normal control and model control groups were gavaged with distilled water under the same conditions. The mice were weighed and dissected on Day 5, and lung was weighed to calculate lung index and lung index inhibition. The results were statistically processed using t-test for comparison between groups.
(§2) ICR mice were taken and randomly divided into 9 groups according to the body weight: a normal control group, model control group, oseltamivir control group, and two dosage groups of Compound 9, Compound 12 and Compound 2, 10 mice in each group. Except the normal control group, mice were slightly anesthetized with ether and infected with 15 LD50 H1N1/PR8 influenza virus liquid by nasal drops at 30 μl per mouse. The administration was started on the day of infection, at 0.2 ml/10 g each time by gavage once a day for 4 days, and the normal control and model control groups were gavaged with distilled water under the same conditions. The mice were weighed and dissected on Day 5, and lungs were weighed to calculate lung index and lung index inhibition. The results were statistically processed using t-test for comparison between groups.

[4] = tested on: Influenza A (H1N1) virus FM1 strain; assay: Mouse pneumonia model infected with influenza A (H1N1) virus FM1 strain (lung index); format: in vivo, ICR mice
Description: ICR mice were taken and randomly divided into: normal control group, model control group, ribavirin control group, compound 4, compound F1, compound F2, and compound F3 according to their weight class, and each drug was given in two dosage groups (10 mice in each group). Except for the normal control group, mice were slightly anesthetized with ether and infected with 15 LD50 H1N1 influenza virus liquid FM1 strain by nasal drops (30 μl per animal). The administration was started on the day of infection at 0.2 ml/10 g by gavage each time once a day for 4 days, and the normal control and model control groups were gavaged with distilled water under the same conditions. The mice were weighed and dissected on Day 5, and the lung was weighed to calculate lung index and lung index inhibition. The results were statistically processed using t-test for comparison between groups.
as §1, §2

[5] = tested on: human coronavirus OC43; format: in vivo; conditions: Table 6 (Example 17); 90 mg/kg/d gavage for 4 days
[6] = Acute toxicity test in mice (single gavage, 14-day observation); format: in vivo
Description: Seventy ICR mice, weighing 17-21 g, were randomly divided into 7 groups according to fasting body weight: a normal control group and 6 dose groups of 475, 633, 844, 1125, 1500 and 2000 mg of the test drug (compound 4)/kg, 10 mice in each group, 50/50 male and female. After fasting for about 15 h, each dosing group was administered once by gavage in a volume of 40 ml/kg, and the control group was gavaged with an equal volume of 0.5% sodium carboxymethylcellulose solution once/day, and the animals were observed continuously for 14 days after administration of the drug to observe the death of the animals.
Thirty ICR mice, weighing 17-21 g, were randomly divided into three groups according to their fasting body weight: a normal control group and 2000 mg and 4000 mg of test drug (Compound 12)/kg dose group, 10 mice in each group, 50/50 male and female. After fasting for about 15 h, each dosing group was given the drug once by gavage in a volume of 40 ml/kg, and the control group was given an equal volume of 0.5% sodium carboxymethylcellulose solution by gavage once/day, and the deaths of the animals were observed continuously for 14 days after the administration of the drug.

[7] = Table 11 (Example 24), 7.5 mg/kg/d gavage for 4 days
[8] = Table 11 (Example 24), 15 mg/kg/d gavage for 4 days
[9] = Human coronavirus 229E, in Mus musculus, po, 96 h, Table 10 (Example 23), 7.5 mg/kg/d gavage for 4 days, read-out: inhibition rate (%)
[10] = Table 10 (Example 23), 7.5 mg/kg/d gavage for 4 days
[11] = Table 12 (Example 25), 7.5 mg/kg/d gavage for 4 days
[12] = Table 12 (Example 25), 15 mg/kg/d gavage for 4 days
[13] = Table 13 (Example 25), 7.5 mg/kg/d gavage for 4 days
[14] = Table 13 (Example 25), 15 mg/kg/d gavage for 4 days
[15] = Table 3 (Example 14), 27.5 mg/kg gavage once a day for 4 days
[16] = Table 12 (Example 25), 27.5 mg/kg/d gavage for 4 days
[17] = Table 13 (Example 25), 27.5 mg/kg/d gavage for 4 days
[18] = Table 7 (Example 18), 82.5 mg/kg/d gavage for 4 days
[19] = Table 11 (Example 24), 82.5 mg/kg/d gavage for 4 days

| Structure (SMILES) | inhibition rate % [1, 7] [%] | lung index [1, 7] | inhibition rate % [1, 8] [%] | lung index [1, 8] | inhibition in vivo at 7.5 mg/kg/day [2, 9] [%] | lung index [2, 10] | inhibition rate % [3, 11] [%] | lung index [3, 11] | inhibition rate % [3, 12] [%] | lung index [3, 12] | inhibition rate % [4, 13] [%] | lung index [4, 13] | inhibition rate % [4, 14] [%] | lung index [4, 14] | other results |
| --- | --- | --- | --- | --- | --- | --- | --- | --- | --- | --- | --- | --- | --- | --- | --- |
| CC(=O)N(CCOc1ccc2c(=O)c(-c3ccccc3)coc2c1)C1CC1 [Compound 10] | 7.43 | 0.83 ± 0.06 Lung weight * 100/body weight | −16.30 | 0.86 ± 0.05 Lung weight * 100/body weight | 25.6 | 0.85 ± 0.06 g lung weight × 100/g body weight | – | – | – | – | – | – | – | – | – |
| CCC(=O)N(CCOc1ccc2c(=O)c(-c3ccccc3)coc2c1)C1CC1 [Compound 11] | −20.73 | 0.87 ± 0.04 Lung weight * 100/body weight | 6.19 | 0.83 ± 0.05 Lung weight * 100/body weight | 14.1 | 0.87 ± 0.08 g lung weight × 100/g body weight | – | – | – | – | – | – | – | – | – |
| CN(CCOc1ccc2c(=O)c(-c3ccccc3)coc2c1)C1CC1 [Compound 9] | 40.51 | 0.79 ± 0.05 Lung weight * 100/body weight | 55.59 | 0.77 ± 0.05 Lung weight * 100/body weight | 46.5 | 0.81 ± 0.10 g lung weight × 100/g body weight | 58.71 | 0.74 ± 0.046 Lung weight * 100/body weight | 91.64 | 0.71 ± 0.060 Lung weight * 100/body weight | 79.57 | 0.72 ± 0.069 Lung weight * 100/body weight | 84.63 | 0.71 ± 0.052 Lung weight * 100/body weight | – |
| CCOC(=O)C1=C[C@@H](OC(CC)CC)[C@H](NC(C)=O)[C@@H](N)C1 [Oseltamivir, Oseltamivir phosphate, reference compound] | – | – | – | – | – | – | – | – | – | – | – | – | – | – | inhibition rate % [3, 15]: 58.89%; inhibition rate % [3, 16]: 88.97%; lung index [3, 16]: 0.71 ± 0.069 Lung weight * 100/body weight; inhibition in vivo at 27.5 mg/kg ([4]; Influenza A virus, H1N1, po, 96 h, Table 2 (Example 14), 27.5 mg/kg gavage once a day for 4 days, read-out: inhibition rate (%)): 62.1%; lung index ([4]; Table 2 (Example 14), 27.5 mg/kg gavage once a day for 4 days): 0.86 ± 0.21; inhibition rate % [4, 17]: 64.57%; lung index [4, 17]: 0.74 ± 0.065 Lung weight * 100/body weight |
| CCN(CC)CCCC(C)Nc1ccnc2cc(Cl)ccc12 (stereo not drawn) [Chloroquine, chloroquine phosphate, reference compound] | – | – | – | – | – | – | – | – | – | – | – | – | – | – | inhibition rate % [5]: 42.72%; lung index [5]: 0.80 ± 0.05 g lung weight × 100/g body weight; inhibition in vivo at 90 mg/kg/day ([2]; Human coronavirus 229E, in Mus musculus, po, 96 h, read-out: inhibition rate (%), Table 4 (Example 15), 90 mg/kg/d gavage for 4 days): 31.3%; inhibition in vivo at 90 mg/kg/day ([2]; Human coronavirus 229E, in Mus musculus, po, 96 h, read-out: inhibition rate (%), Table 5 (Example 16), 90 mg/kg/d gavage for 4 days): 56.2%; inhibition in vivo at 90 mg/kg/day ([2]; Human coronavirus 229E, in Mus musculus, po, 96 h, read-out: inhibition rate (%), Table 10 (Example 23), 90 mg/kg/d gavage for 4 days): 52.9%; inhibition in vivo at 90 mg/kg/day ([2]; Human coronavirus 229E, in Mus musculus, po, 96 h, read-out: inhibition rate (%), Table 14 (Example 26), 90 mg/kg/d gavage for 4 days): 62.8%; lung index ([2]; Table 4 (Example 15), 90 mg/kg/d gavage for 4 days): 0.78 ± 0.04 g lung weight × 100/g body weight; lung index ([2]; Table 5 (Example 16), 90 mg/kg/d gavage for 4 days): 0.70 ± 0.04 g lung weight × 100/g body weight; lung index ([2]; Table 10 (Example 23), 90 mg/kg/d gavage for 4 days): 0.80 ± 0.02 g lung weight × 100/g body weight; lung index ([2]; Table 14 (Example 26), 90 mg/kg/d gavage for 4 days): 0.83 ± 0.05 g lung weight × 100/g body weight |
| NC(=O)c1ncn([C@@H]2O[C@H](CO)[C@@H](O)[C@H]2O)n1 [Ribavirin, ribavirin, reference compound] | – | – | – | – | – | – | – | – | – | – | – | – | – | – | inhibition rate % [1, 18]: 42.06%; lung index [1, 18]: 0.70 ± 0.03 lung weight/100 g body weight; inhibition rate % [1, 19]: 57.66%; lung index [1, 19]: 0.77 ± 0.04 Lung weight * 100/body weight; inhibition rate % [3, 15]: 58.89%; lung index [3, 15]: 0.84 ± 0.10; inhibition in vivo at 82.5 mg/kg ([4]; Influenza A virus, H1N1, po, 96 h, Table 1 (Example 13), 82.5 mg/kg gavage once a day for 4 days, read-out: inhibition rate (%)): 49.6%; lung index ([4]; Table 1 (Example 13), 82.5 mg/kg gavage once a day for 4 days): 0.96 ± 0.16 |
| COc1ccc(-c2coc3cc(OCCNC4CC4)ccc3c2=O)cc1 [Compound 2] | −18.32 | 0.86 ± 0.04 Lung weight * 100/body weight | 3.27 | 0.84 ± 0.07 Lung weight * 100/body weight | – | – | 99.05 | 0.70 ± 0.110 Lung weight * 100/body weight | 60.90 | 0.74 ± 0.091 Lung weight * 100/body weight | 26.60 | 0.77 ± 0.074 Lung weight * 100/body weight | 72.90 | 0.73 ± 0.060 Lung weight * 100/body weight | – |
| CC(C)N(CCOc1ccc2c(=O)c(-c3ccccc3)coc2c1)C1CC1 [Compound 12] | 57.49 | 0.77 ± 0.04 Lung weight * 100/body weight | 61.91 | 0.76 ± 0.03 Lung weight * 100/body weight | – | – | 63.78 | 0.74 ± 0.091 Lung weight * 100/body weight | 76.54 | 0.72 ± 0.076 Lung weight * 100/body weight | 70.82 | 0.73 ± 0.070 Lung weight * 100/body weight | 93.59 | 0.71 ± 0.042 Lung weight * 100/body weight | inhibition in vivo at 7.5 mg/kg/day ([2]; Human coronavirus 229E, in Mus musculus, po, 96 h, Table 14 (Example 26), 7.5 mg/kg/d gavage for 4 days, read-out: inhibition rate (%)): 39.8%; inhibition in vivo at 15 mg/kg/day ([2]; Human coronavirus 229E, in Mus musculus, po, 96 h, Table 14 (Example 26), 15 mg/kg/d gavage for 4 days, read-out: inhibition rate (%)): 68.4%; lung index ([2]; Table 14 (Example 26), 7.5 mg/kg/d gavage for 4 days): 0.86 ± 0.04 g lung weight × 100/g body weight; lung index ([2]; Table 14 (Example 26), 15 mg/kg/d gavage for 4 days): 0.82 ± 0.07 g lung weight × 100/g body weight; animal deaths ([6]; 2000 and 4000 mg of the drug/kg single gavage, 14 days observation): No animals died; maximum concentration that could be administered by gavage, with no death of the animals ([6]; acute toxicity, mice): 4000 mg/kg |
